According to patent US20220401514A1, “ANTIMICROBIAL, BACTERIOPHAGE-DERIVED POLYPEPTIDES AND THEIR USE AGAINST GRAM-NEGATIVE AND ACID-FAST BACTERIA” (CONTRAFECT CORPORATION, priority 2019, published 2022):
≈ marks a conversion by molar mass, not a printed value.

Legend:
[1] = system: P. aeruginosa strain CFS-1292; test: Checkerboard assay (FICI) with antibiotics, P. aeruginosa; type: cell-based, Pseudomonas aeruginosa; details: for Antibiotic FIC: P. aeruginosa CFS-1292; for Antibiotic MIC in checkerboard: P. aeruginosa CFS-1292, CAA + […] human serum
Description: Any known method to assess MIC may be used.
Checkerboards are constructed by first preparing columns of e.g., a 96-well polypropylene microtiter plate, wherein each well has the same amount of antibiotic diluted 2-fold along the horizontal axis. […] Bacteria are added to the drug combinations at concentrations of 1×10^5 […] in CAA, for example, with or without human serum or pulmonary surfactant. […] Summation fractional inhibitory concentrations (ΣFICs) are calculated for each drug and the minimum ΣFIC value (ΣFICmin) is used to determine the effect of the Chp peptide/antibiotic combination.
(§1) Checkerboard assays. […] Checkerboards were constructed by first preparing columns of a 96-well polypropylene microtiter plate, in which each well had the same amount of antibiotic diluted 2-fold along the horizontal axis. […] Summation fractional inhibitory concentration index (FICIs) were calculated for each drug and the minimum FICI was used to determine synergy. FICIs were calculated as follows: FICI=FIC A+FIC B, where FIC A is the MIC of each antibiotic in the combination/MIC of the each antibiotic alone, and FIC B is the MIC of each Chp peptide in the combination/MIC of each Chp peptide alone. The combination is considered synergistic when the FICI is ≤0.5, strongly additive when the FICI is >0.5 to <1, additive with the FICI is 1-<2, and antagonistic when the FICI is ≥2.
In the checkerboard assay, fractional inhibitory concentration index (FICI) values are calculated.

[2] = system: Acinetobacter baumannii strain 30; test: Checkerboard assay (FICI) with antibiotics, A. baumannii; type: cell-based; details: checkerboard
Description: as §1
The results are shown below in Tables 22-27.

[3] = system: Stenotrophomonas-containing biofilm on explanted hemodialysis catheters; test: Antibiofilm activity in explanted hemodialysis catheters; type: cell-based, Stenotrophomonas spp.
Description: The explanted hemodialysis catheters were cut into equal length segments and bisected to expose the lumen.
The samples were treated for 4 hours at 37° C. before rinsing with Lactated Ringer's solution.
Three additional infected hemodialysis catheter samples were removed from two patients (one catheter from a first patient and two catheters from a second patient). […] The samples were incubated at 37° C. for 4 hours.

[4] = system: Klebsiella pneumoniae strain 1139; test: Checkerboard assay (FICI) with antibiotics, K. pneumoniae; type: cell-based
Description: as §1

[5] = system: carbapenem-resistant bacterial strains; test: organism not typed; type: cell-based; details: carbapenem-resistant isolate PA23
Description: Determination of Minimal Inhibitory Concentrations (MIC).

[6] = checkerboard, in combination with Chp4-M1
[7] = checkerboard, in combination with Chp6-M1
[8] = checkerboard, in combination with Chp10-M1

C[C@@H](O)[C@H]1C(=O)N2C(C(=O)O)=C(S[C@@H]3CN[C@H](C(=O)N(C)C)C3)[C@H](C)[C@H]12 [meropenem, reference compound]
Antibiotic FIC ([1]; combined with Chp2-M1): 0.25 | Antibiotic MIC in checkerboard ([1]; combined with Chp2-M1): 4 µg/mL | Antibiotic FIC ([1]; combined with Chp2): 0.25 | Antibiotic MIC in checkerboard ([1]; combined with Chp2): 4 µg/mL | Antibiotic FIC ([1]; combined with Chp4-M1): 0.25 | Antibiotic MIC in checkerboard ([1]; combined with Chp4-M1): 4 µg/mL | Antibiotic FIC ([1]; combined with Chp6-M1): 0.25 | Antibiotic MIC in checkerboard ([1]; combined with Chp6-M1): 4 µg/mL | Antibiotic FIC ([1]; combined with Chp10-M1): 0.25 | Antibiotic MIC in checkerboard ([1]; combined with Chp10-M1): 2 µg/mL | Antibiotic FIC ([1]; combined with Unp2-M1): 0.25 | Antibiotic MIC in checkerboard ([1]; combined with Unp2-M1): 4 µg/mL | Antibiotic FIC ([2]; in combination with Chp2): 0.25 | Antibiotic FIC ([2]; in combination with Chp2-M1): 0.25 | Antibiotic FIC ([2]; in combination with Chp4-M1): 0.25 | Antibiotic FIC ([2]; in combination with Chp6-M1): 0.25 | Antibiotic FIC ([2]; in combination with Chp10-M1): 0.125 | Antibiotic FIC ([2]; in combination with Unp2-M1): 0.25 | eradication of biofilm on three additional catheter samples ([3]; Chp2-M1 1 μg/mL and 10 μg/mL, meropenem 1 μg/mL): did not eliminate biofilm | log10 CFU/g ([3]; second catheter sample from the second patient, 1 μg/mL, 4 hours): 3.16 log10 CFU/g | Antibiotic FIC [4, 6]: 0.125 | Antibiotic MIC [4, 6]: 0.007812 µg/mL | Antibiotic FIC [4, 7]: 0.25 | Antibiotic MIC [4, 7]: 0.01562 µg/mL | Antibiotic FIC [4, 8]: 0.125 | Antibiotic MIC [4, 8]: 0.01562 µg/mL | Antibiotic FIC ([4]; checkerboard, in combination with Unp2-M1): 0.03125 | Antibiotic FIC ([4]; combined with Chp2): 0.25 | Antibiotic MIC in checkerboard ([4]; combined with Chp2): 0.01562 µg/mL | Antibiotic FIC ([4]; combined with Chp2-M1): 0.25 | Antibiotic MIC in checkerboard ([4]; combined with Chp2-M1): 0.01562 µg/mL | MIC [5]: 8 µg/mL (≈ 20.9 µM)
